Results on 17 compounds are retold here after patent publication US9051331B2, “Substituted dihydro benzocycloalkyloxymethyl oxazolopyrimidinones, preparation and use thereof” (Sanofi, priority 2009, dated 2015).

For experiment [1] the following is noted: DBA/2 mice; cited from earlier work.
In experiment [2] the target is rat or human mGluR2 receptor (UniProt Q14416). Description: calcium ion (Ca2+) mobilization assay for allosteric modulators of mGluR2. In kind it is cell-based. The note with it: potency at approx. EC10 for glutamate; rat or human receptor not given; read-out: mGluR2 Potentiation (EC50). The text has this:
A calcium ion (Ca^2) mobilization assay was used to identify and determine the activity for allosteric modulators of the rat or human mGluR2 receptor. Two formats were used: (1) examine the ability of glutamate to affect the potency of the modulator, by looking at a concentration-response curve of compound at different submaximal glutamate concentrations, and (2) look at the ability of the modulator to affect the potency of glutamate by looking at a concentration-response curve of glutamate at a maximal modulator concentration.
To monitor functional receptor response using calcium mobilization, a cell line stably expressing the rat or human mGluR2 receptor (normally coupled to its intracellular effector molecules through an inhibitory G-protein, Gαi) and Gα16, in a tetracycline-inducible vector was created. Gα16 can promiscuously couple Gs and Gi-coupled receptors to the inositol phospholipid signaling pathway by activating phospholipase Cβ resulting in a Ca^2+ signal (normally Gαq-mediated), that can be monitored with fluorescence plate readers such as FLIPR (Molecular Devices, Fluorescence Imaging Plate Reader), FDSS6000 (Hamamatsu, Fluorescence Drug Screening System), or FlexStation (Molecular Devices). The Ca^2+ mobilization assay was based on the detection of intracellular calcium changes using a selective, calcium-chelating dye: Fluo-3, Fluo-4, or Calcium-3. A large fluorescence intensity increase was observed upon calcium association with the dye. The dye was delivered either with the acetoxy-methyl ester, and washed off, or using a no-wash kit (Molecular Devices). Fluorescence signals stimulated by glutamate were recorded and used to generate the following pharmacological parameters: (1) the potency (EC50) of the compound(s) of interest at approx. EC 10 for glutamate at the rat and human mGluR2 receptors respectively, and (2) a fold-shift of the glutamate EC50 by maximal concentration of compound(s) of interest.

For experiment [3] the following is noted: pretreatment, healthy human subjects; cited from earlier work.
For experiment [4] the following is noted: pentylenetetrazole- and picrotoxin-induced; cited from earlier work.
For experiment [5] the following is noted: rat; cited from earlier work.
The conditions of experiment [6]: compared to placebo; cited from earlier work.
For experiment [7] the following is noted: some animal models; cited from earlier work.
For experiment [8] the following is noted: mice; cited from earlier work.

`N[C@H](C(=O)O)c1ccc(C(=O)O)c(O)c1` [(S)-4-carboxy-3-hydroxyphenylglycine]: in experiment [1], the “protection against audiogenic seizures” value is on record as “protects against audiogenic seizures”. As for `O=c1ccn2c(n1)O[C@H](COc1ccc3c(c1)CCC3)C2` [Comparative Ex. 1, (S)-2-(Indan-5-yloxymethyl)-2,3-dihydro-oxazolo[3,2-a]pyrimidin-7-one], the half-maximal effective concentration (EC50) in experiment [2] is 445 nM. On the same count and under the same terms, under `O=c1ccn2c(n1)O[C@H](COc1ccc3c(c1)CCCC3)C2` [Comparative Ex. 2, (S)-2-(5,6,7,8-Tetrahydro-naphthalen-2-yloxymethyl)-2,3-dihydro-oxazolo[3,2-a]pyrimidin-7-one] stands 224 nM. The same measure, in the same setting: the result for `CC1(C)CCc2cc(OC[C@H]3Cn4ccc(=O)nc4O3)ccc21` [Comparative Ex. 3, (R)-2-(1,1-Dimethyl-indan-5-yloxymethyl)-2,3-dihydro-oxazolo[3,2-a]pyrimidin-7-one] reads 9100 nM; that for `CC1(C)CCc2cc(OC[C@@H]3Cn4ccc(=O)nc4O3)ccc21` [Example 1, (S)-2-(1,1-Dimethyl-indan-5-yloxymethyl)-2,3-dihydro-oxazolo[3,2-a]pyrimidin-7-one], 29 nM. Still for that read-out and setting: under `CC1(C)CCCc2cc(OC[C@@H]3Cn4ccc(=O)nc4O3)ccc21` [Example 2, (S)-2-(5,5-Dimethyl-5,6,7,8-tetrahydro-naphthalen-2-yloxymethyl)-2,3-dihydro-oxazolo[3,2-a]pyrimidin-7-one] stands 19 nM; under `CC1(C)CCCCc2cc(OC[C@@H]3Cn4ccc(=O)nc4O3)ccc21` [Example 3, (S)-2-(5,5-Dimethyl-6,7,8,9-tetrahydro-5H-benzocyclohepten-2-yloxymethyl)-2,3-dihydro-oxazolo[3,2-a]pyrimidin-7-one], 11 nM; under `CC1(C)CCC(C)(C)c2cc(OC[C@@H]3Cn4ccc(=O)nc4O3)ccc21` [Example 4, (S)-2-(5,5,8,8-Tetramethyl-5,6,7,8-tetrahydro-naphthalen-2-yloxymethyl)-2,3-dihydro-oxazolo[3,2-a]pyrimidin-7-one], 15 nM. Consider `CCc1cn2c(nc1=O)O[C@H](COc1ccc3c(c1)CCC3(C)C)C2` [Example 7, (S)-2-(1,1-Dimethyl-indan-5-yloxymethyl)-6-ethyl-2,3-dihydro-oxazolo[3,2-a]pyrimidin-7-one], for which the EC50 in experiment [2] stood at 20 nM.

For the compound `CCc1cn2c(nc1=O)O[C@H](COc1ccc3c(c1)CCCC3(C)C)C2` [Example 8, (S)-2-(5,5-Dimethyl-5,6,7,8-tetrahydro-naphthalen-2-yloxymethyl)-6-ethyl-2,3-dihydro-oxazolo[3,2-a]pyrimidin-7-one], the EC50 in experiment [2] was found to be 17 nM.

Regarding `CCC(F)(F)c1cc(=O)nc2n1C[C@@H](COc1ccc3c(c1)CCC3(C)C)O2` [Example 9, (S)-5-(1,1-Difluoro-propyl)-2-(1,1-dimethyl-indan-5-yloxymethyl)-2,3-dihydro-oxazolo[3,2-a]pyrimidin-7-one], the EC50 in experiment [2] came out at 64 nM.

As for `CCC(F)(F)c1cc(=O)nc2n1C[C@@H](COc1ccc3c(c1)CCCC3(C)C)O2` [Example 10, (S)-5-(1,1-Difluoro-propyl)-2-(5,5-dimethyl-5,6,7,8-tetrahydro-naphthalen-2-yloxymethyl)-2,3-dihydro-oxazolo[3,2-a]pyrimidin-7-one], the EC50 in experiment [2] was 15 nM. As for `N[C@@]1(C(=O)O)CC[C@H]2[C@H](C(=O)O)[C@H]21` [LY354740], the “effect on ketamine-disrupted working memory” value in experiment [3] is listed as “attenuation of the disruptive effects”. Further, the “effect on chemically induced seizures” value in experiment [4] is “attenuates pentylenetetrazole- and picrotoxin-induced seizures”. As to `N[C@@]1(C(=O)O)CO[C@H]2[C@H](C(=O)O)[C@H]21` [LY379268], the “effect on REM sleep and fast EEG” value in experiment [5] is “suppresses rapid eye movement (REM) sleep and fast EEG”. As for `CSCC[C@H](N)C(=O)N[C@@]1(C(=O)O)CS(=O)(=O)[C@H]2[C@H](C(=O)O)[C@H]21` [LY2140023], in experiment [6], the “positive and negative symptoms of schizophrenia” value is on record as “statistically significant improvements”.

Turning to `N[C@]1(C(=O)O)[C@H]2[C@@H](C[C@H]1OCc1ccc(Cl)c(Cl)c1)[C@]2(F)C(=O)O` [MGS0039], the antidepressant-like effects entry in experiment [7] was “dose-dependent antidepressant-like effects”.

For the compound `Cc1c(OCc2cccc(-c3ccc(C(=O)O)cc3)c2)cc2c(c1C)C(=O)C(C1CCCC1)C2` (stereo not drawn) [biphenyl-indanone A], the “antipsychotic- and anxiolytic-like effects” value in experiment [8] is “antipsychotic- and anxiolytic-like effects in mice”.
